Results as given in US20260364080A1, “PYRAZOLO-PYRIMIDINONE COMPOUNDS FOR USE IN METHODS OF INHIBITING WEE1 A KINASE” (Acrivon Therapeutics, Inc., priority 2023, published 2026).
Where two headings read alike, the source gives them in different places.

Columns and labels:
[1] = molecular target: T1, Wee1A kinase (CDK1 Tyr15 phosphorylation in ACHN renal cell carcinoma cells) (Homo sapiens, UniProt P30291); assay: High-content imaging of pCdk1 Y15, Wee1A kinase target engagement in ACHN cells; format: cell-based
T1 construct: pCDK1 Tyr15 immunofluorescence read-out
Method in brief: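 ACHN cells exposed to compound for 4 h over 7–5,000 nM or 0.3–200 nM, then fixed and immunostained for pCDK1 Y15 with DAPI nuclear counterstain. The percentage of pCdk1 Y15 nucleus-positive cells relative to DMSO control was imaged per well; EC50 from dose-response curves.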

[2] = molecular target: T2, recombinant human Wee1A kinase (Homo sapiens, UniProt P30291); assay: Wee1A kinase binding assay (LanthaScreen Eu time-resolved FRET)
T2 construct: full length Wee1 kinase was expressed by baculovirus in insect cells; purchased Invitrogen PV3817; host or cells: insect cells (baculovirus)
Method in brief: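 Full-length, baculovirus-expressed GST-tagged Wee1A (5 nM) was mixed with 2 nM Eu-anti-GST antibody, 30 nM kinase tracer 178 and compound (1% DMSO). Buffer was 50 mM HEPES pH 7.5, 10 mM MgCl2, 1 mM EGTA, 0.01% Brij-35, incubated 60 min at room temperature. TR-FRET 665/615 nm emission ratios from duplicates were curve-fitted.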

[3] = molecular target: T3, Myt1 kinase (recombinant PMYT-1) (Homo sapiens, UniProt Q99640); assay: Myt1 kinase binding assay (LanthaScreen Eu Kinase Binding Assay)
T3 construct: full length PMYT-1 was expressed by baculovirus in insect cells; purchased Invitrogen A30984; host or cells: insect cells (baculovirus)
T3 sequence (Q99640 1-499): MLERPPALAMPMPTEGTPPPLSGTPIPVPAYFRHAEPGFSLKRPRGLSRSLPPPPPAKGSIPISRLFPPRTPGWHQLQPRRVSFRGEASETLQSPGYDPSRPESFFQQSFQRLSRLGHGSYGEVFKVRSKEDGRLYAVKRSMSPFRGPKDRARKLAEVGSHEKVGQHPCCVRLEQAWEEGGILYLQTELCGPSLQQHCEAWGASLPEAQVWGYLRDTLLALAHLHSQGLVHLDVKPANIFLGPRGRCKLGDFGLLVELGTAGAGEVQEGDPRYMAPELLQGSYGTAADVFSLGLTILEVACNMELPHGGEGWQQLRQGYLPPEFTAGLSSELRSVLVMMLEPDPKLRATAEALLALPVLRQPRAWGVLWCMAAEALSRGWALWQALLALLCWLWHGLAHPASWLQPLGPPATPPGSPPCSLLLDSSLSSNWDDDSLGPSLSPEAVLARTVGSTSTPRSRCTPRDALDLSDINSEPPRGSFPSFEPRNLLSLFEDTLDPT
Method in brief: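 The binding affinity of compounds for Myt1 kinase was measured with a LanthaScreen Europium (Eu) Kinase Binding Assay, a time-resolved FRET format in which test compounds compete against a labeled kinase tracer, and the results were expressed as IC50 values describing compound binding to Myt1.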

[4] = 4 h treatment, nuclear positivity for pCdk1 Y15 vs DMSO control, read-out: CDK1 Tyr15 Phosphorylation EC50
[5] = 30 nM tracer 178, 5 nM Wee1A kinase, 2 nM Eu-labeled antibody, 60 minutes at room temperature, read-out: Wee1A kinase Binding IC50
[6] = 3 nM tracer 178, 2.5 nM PMYT-1, 1 nM Eu-labeled antibody, read-out: Myt1 kinase Binding IC50

T2 sequence (P30291 whole entry): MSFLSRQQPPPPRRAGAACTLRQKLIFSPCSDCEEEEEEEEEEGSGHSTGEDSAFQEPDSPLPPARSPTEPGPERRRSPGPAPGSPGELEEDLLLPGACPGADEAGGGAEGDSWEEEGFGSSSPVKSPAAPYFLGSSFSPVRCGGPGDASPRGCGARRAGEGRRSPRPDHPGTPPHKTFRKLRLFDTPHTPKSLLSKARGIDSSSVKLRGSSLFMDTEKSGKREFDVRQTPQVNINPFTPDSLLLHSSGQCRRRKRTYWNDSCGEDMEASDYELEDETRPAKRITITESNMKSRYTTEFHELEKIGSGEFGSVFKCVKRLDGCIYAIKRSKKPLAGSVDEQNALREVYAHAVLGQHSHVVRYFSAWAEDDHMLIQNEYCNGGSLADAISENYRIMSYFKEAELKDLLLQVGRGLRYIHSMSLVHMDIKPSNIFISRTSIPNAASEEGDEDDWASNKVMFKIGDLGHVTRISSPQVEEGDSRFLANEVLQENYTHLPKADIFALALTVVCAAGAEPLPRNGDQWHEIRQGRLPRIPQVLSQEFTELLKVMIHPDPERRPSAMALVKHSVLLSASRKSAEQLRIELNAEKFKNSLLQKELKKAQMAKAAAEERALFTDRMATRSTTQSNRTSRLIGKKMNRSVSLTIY
T1 sequence (P30291 whole entry): as above

EC50 [1, 4] [nM]	IC50 [2, 5] [nM]	IC50 [3, 6] [nM]	EC50 ([1]; read-out: CDK1 Tyr15 Phosphorylation EC50, 4 h treatment, nuclear positivity for pCdk1 Y15 vs DMSO control) [nM]	IC50 [2] [nM]	IC50 ([3]; Myt1 kinase Binding IC50, 3 nM tracer 178, 2.5 nM PMYT-1, 1 nM Eu-labeled antibody) [nM]	SMILES
> 1000	< 10	20 to 100				C=CCn1c(=O)c2cnc(Nc3ccc4ncnn4c3)nc2n1-c1cccc(OC2CCNCC2)n1 [Compound 245, 2-allyl-6-(1,3,3a-triaza-5-indenylamino)-1-[6-(4-piperidyloxy)-2-pyridyl]-1,2-dihydro-3H-1,2,5,7-tetraazainden-3-one]
< 100	< 10	20 to 100				C=CCn1c(=O)c2cnc(Nc3ccc(F)cc3)nc2n1-c1cccc(OC2CCCN(C)CC2)n1 (single isomer, unassigned) [Compound 372]
< 100	< 10	20 to 100				C=CCn1c(=O)c2cnc(Nc3ccc4c(c3)c(C)nn4C)nc2n1-c1cccc(OC2CCNCC2)n1 [Compound 347, 2-allyl-6-((1,3-dimethyl-1H-indazol-5-yl)amino)-1-(6-(piperidin-4-yloxy)pyridin-2-yl)-1,2-dihydro-3H-pyrazolo[3,4-d]pyrimidin-3-one]
< 100	< 10	20 to 100				C=CCn1c(=O)c2cnc(Nc3ccc(N4CCOCC4)c(C)c3)nc2n1-c1cccc(OC2CCNCC2)n1 [Compound 262, 2-allyl-6-(4-morpholino-3-toluidino)-1-[6-(4-piperidyloxy)-2-pyridyl]-1,2-dihydro-3H-1,2,5,7-tetraazainden-3-one]
< 100	< 10	20 to 100				C=CCn1c(=O)c2cnc(Nc3ccc4c(cnn4C)c3)nc2n1-c1cccc(OC2CCCNCC2)n1 (single isomer, unassigned) [Compound 357]
100 to 500	< 10	100 to 500				C=CCn1c(=O)c2cnc(Nc3ccc4c(cnn4C)c3)nc2n1-c1cccc(O[C@@H]2CCNC2)n1 [Compound 101, 1-{6-[(R)-3-pyrrolidinyloxy]-2-pyridyl}-2-allyl-6-(1-methyl-1H-indazol-5-ylamino)-1,2-dihydro-3H-1,2,5,7-tetraazainden-3-one]

The next lines start with the compound.

SMILES	EC50 [1, 4] [nM]	IC50 [2, 5] [nM]	IC50 [3, 6] [nM]	EC50 ([1]; read-out: CDK1 Tyr15 Phosphorylation EC50, 4 h treatment, nuclear positivity for pCdk1 Y15 vs DMSO control) [nM]	IC50 [2] [nM]	IC50 ([3]; Myt1 kinase Binding IC50, 3 nM tracer 178, 2.5 nM PMYT-1, 1 nM Eu-labeled antibody) [nM]
C=CCn1c(=O)c2cnc(Nc3cncc(C#N)c3)nc2n1-c1cccc(OC2CCN(C)CC2)n1 [Compound 330, 5-[(1-{6-[(1-methylpiperidin-4-yl)oxy]pyridin-2-yl}-3-oxo-2-(prop-2-en-1-yl)-1H,2H,3H-pyrazolo[3,4-d]pyrimidin-6-yl)amino]pyridine-3-carbonitrile]	100 to 500	< 10	100 to 500			
C=CCn1c(=O)c2cnc(Nc3ccc(OC(F)(F)F)c(C)c3)nc2n1-c1cccc(NC2CCNCC2)n1 [Compound 136, 6-{[3-methyl-4-(trifluoromethoxy)phenyl]amino}-1-{6-[(piperidin-4-yl)amino]pyridin-2-yl}-2-(prop-2-en-1-yl)-1H,2H,3H-pyrazolo[3,4-d]pyrimidin-3-one]	100 to 500	< 10	100 to 500			
C=CCn1c(=O)c2cnc(Nc3cc(C)cc(OC(F)(F)F)c3)nc2n1-c1cccc(NC2CCNCC2)n1 [Compound 155, 6-{[3-methyl-5-(trifluoromethoxy)phenyl]amino}-1-{6-[(piperidin-4-yl)amino]pyridin-2-yl}-2-(prop-2-en-1-yl)-1H,2H,3H-pyrazolo[3,4-d]pyrimidin-3-one]	500 to 1000	< 10	100 to 500			
C=CCn1c(=O)c2cnc(Nc3cnn(C)c3)nc2n1-c1cccc(N(C)C2CCNCC2)n1 [Compound 182, 1-{6-[methyl(piperidin-4-yl)amino]pyridin-2-yl}-6-[(1-methyl-1H-pyrazol-4-yl)amino]-2-(prop-2-en-1-yl)-1H,2H,3H-pyrazolo[3,4-d]pyrimidin-3-one]				> 1000	< 10	> 500
CCn1c(=S)c2cnc(Nc3ccc4c(cnn4C)c3)nc2n1-c1cccc(OC2CCN(C)CC2)n1 [Compound 362, 2-ethyl-6-[(1-methyl-1H-indazol-5-yl)amino]-1-{6-[(1-methylpiperidin-4-yl)oxy]pyridin-2-yl}-1H,2H,3H-pyrazolo[3,4-d]pyrimidine-3-thione]	100 to 500	< 10	100 to 500			
C=CCn1c(=O)c2cnc(Nc3ccc4c(cnn4C(C)C)c3)nc2n1-c1ccnc(OC2CCNCC2)n1 [Compound 375, 2-allyl-6-((1-isopropyl-1H-indazol-5-yl)amino)-1-(2-(piperidin-4-yloxy)pyrimidin-4-yl)-1,2-dihydro-3H-pyrazolo[3,4-d]pyrimidin-3-one]	< 100	< 10	20 to 100			
CCn1c(=O)c2cnc(Nc3ccc(Br)cc3)nc2n1-c1cccc(OC2CCNCC2)n1 [Compound 267, 6-(p-bromophenylamino)-2-ethyl-1-[6-(4-piperidyloxy)-2-pyridyl]-1,2-dihydro-3H-1,2,5,7-tetraazainden-3-one]	100 to 500	< 10	20 to 100			
C=CCn1c(=O)c2cnc(Nc3ccc4c(cnn4C)c3)nc2n1-c1cccc(OC2CCNC(C)C2)n1 [Compound 404, rel-2-allyl-6-((1-methyl-1H-indazol-5-yl)amino)-1-(6-(((2R,4R)-2-methylpiperidin-4-yl)oxy)pyridin-2-yl)-1,2-dihydro-3H-pyrazolo[3,4-d]pyrimidin-3-one]	< 100	< 10	20 to 100			
C=CCn1c(=O)c2cnc(Nc3ccnc(OC)c3)nc2n1-c1cccc(OC2CCN(C)CC2)n1 [Compound 263, 2-allyl-6-(2-methoxy-4-pyridylamino)-1-[6-(1-methyl-4-piperidyloxy)-2-pyridyl]-1,2-dihydro-3H-1,2,5,7-tetraazainden-3-one]	< 100	< 10	< 20			
C=CCn1c(=O)c2cnc(Nc3ccc4c(c3)nnn4C(C)C)nc2n1-c1cccc(OC2CCN(C)CC2)n1 [Compound 409, 2-allyl-6-((1-isopropyl-1H-benzo[d][1,2,3]triazol-5-yl)amino)-1-(6-((1-methylpiperidin-4-yl)oxy)pyridin-2-yl)-1,2-dihydro-3H-pyrazolo[3,4-d]pyrimidin-3-one]	< 100	< 10	< 20			
C=CCn1c(=O)c2cnc(Nc3ccc4c(cnn4C)c3)nc2n1-c1cccc(O[C@@H]2CCN[C@H](C)C2)n1 (stereo in doubt) [Compound 381, 2-allyl-6-((1-methyl-1H-indazol-5-yl)amino)-1-(6-(((2R,4R)-2-methylpiperidin-4-yl)oxy)pyridin-2-yl)-1,2-dihydro-3H-pyrazolo[3,4-d]pyrimidin-3-one]	< 100	< 10	100 to 500			
C=CCn1c(=O)c2cnc(Nc3ccc4c(cnn4C)c3)nc2n1-c1cccc(N[C@@H]2CCN(C(C)C)C2)n1 [Compound 120, 6-[(1-methyl-1H-indazol-5-yl)amino]-2-(prop-2-en-1-yl)-1-(6-{[(3R)-1-(propan-2-yl)pyrrolidin-3-yl]amino}pyridin-2-yl)-1H,2H,3H-pyrazolo[3,4-d]pyrimidin-3-one]	< 100	< 10	100 to 500			
C=CCn1c(=O)c2cnc(Nc3ccc4c(cnn4C)c3)nc2n1-c1cccc(O[C@@H]2CCN(C)[C@H](C)C2)n1 (stereo in doubt) [Compound 382, 2-allyl-1-(6-(((2R,4R)-1,2-dimethylpiperidin-4-yl)oxy)pyridin-2-yl)-6-((1-methyl-1H-indazol-5-yl)amino)-1,2-dihydro-3H-pyrazolo[3,4-d]pyrimidin-3-one]	< 100	< 10	100 to 500			
C=CCn1c(=O)c2cnc(Nc3ccc(Cl)cc3)nc2n1-c1cccc(O[C@@H]2CCCNC2)n1 [Compound 192, 1-{6-[(R)-3-piperidyloxy]-2-pyridyl}-2-allyl-6-(p-chlorophenylamino)-1,2-dihydro-3H-1,2,5,7-tetraazainden-3-one]	100 to 500	< 10	100 to 500			
